The values below come from ChEMBL document CHEMBL4376847, “Aryl Trehalose Derivatives as Vaccine Adjuvants for Mycobacterium tuberculosis” (J Med Chem, 2020).

Assay [1] concerns the target T1, C-type lectin domain family 4 member E (Mus musculus) (UniProt Q9R0Q8).
T1 sequence (whole entry): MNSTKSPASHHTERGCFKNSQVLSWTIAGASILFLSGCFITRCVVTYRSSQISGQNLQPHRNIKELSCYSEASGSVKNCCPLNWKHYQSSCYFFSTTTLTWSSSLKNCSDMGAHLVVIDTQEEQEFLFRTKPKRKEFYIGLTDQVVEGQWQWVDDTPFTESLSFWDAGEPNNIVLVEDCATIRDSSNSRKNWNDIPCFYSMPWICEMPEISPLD
Kind of assay: Agonist activity at Mincle in mouse RAW264.7 cells assessed as TNF-alpha secretion at 0.1 to 100 uM incubated for 18 to 24 hrs by ELISA. The class given is cell-based.

In assay [2] the target is T1, C-type lectin domain family 4 member E (Mus musculus). Kind of assay: Agonist activity at Mincle in mouse RAW264.7 cells assessed as IL-6 production at 0.1 to 100 uM incubated for 18 to 24 hrs by ELISA. The class given is cell-based. In general terms: An ELISA detects its analyte on a solid surface through an enzyme-linked reagent.
For assay [3], the target named is T2, C-type lectin domain family 4 member E (Homo sapiens) (UniProt Q9ULY5).
T2 sequence (whole entry): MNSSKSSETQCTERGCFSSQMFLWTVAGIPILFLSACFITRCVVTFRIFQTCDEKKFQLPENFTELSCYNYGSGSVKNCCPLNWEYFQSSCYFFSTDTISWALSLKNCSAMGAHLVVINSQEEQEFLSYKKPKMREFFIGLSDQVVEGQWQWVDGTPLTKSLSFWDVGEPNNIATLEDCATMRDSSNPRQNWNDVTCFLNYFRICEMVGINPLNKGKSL
In words: Agonist activity at Mincle in human PBMC assessed as TNF-alpha secretion at 0.1 to 100 uM incubated for 18 to 24 hrs by ELISA.

Assay [4] has as its target T2, C-type lectin domain family 4 member E (Homo sapiens). In words: Agonist activity at human Mincle receptor expressed in human HEK cells assessed as NF-kappaB activation incubated for 24 hrs by SEAP reporter gene assay. The class given is cell-based. A general note: A reporter such as luciferase makes a cellular process visible.
In assay [5] the target is T1, C-type lectin domain family 4 member E (Mus musculus). Kind of assay: Agonist activity at mouse Mincle receptor expressed in human HEK cells assessed as NF-kappaB activation incubated for 24 hrs by SEAP reporter gene assay. The class given is cell-based.
For assay [6], the target named is T2, C-type lectin domain family 4 member E (Homo sapiens). In words: Agonist activity at Mincle in human PBMC assessed as increase in TNF-alpha production at 1 to 1000 uM incubated for 18 to 24 hrs by ELISA.
Assay [7] has the same target. Kind of assay: Agonist activity at Mincle in human PBMC assessed as increase in IL-6 secretion at 0.1 to 100 uM incubated for 18 to 24 hrs by luminex multiplex assay.
The target is the same in assay [8]. Kind of assay: Agonist activity at Mincle in human PBMC assessed as increase in IL-1beta secretion at 0.1 to 100 uM incubated for 18 to 24 hrs by luminex multiplex assay.
Assay [9] has the same target. Kind of assay: Agonist activity at Mincle in human PBMC assessed as increase in IL-23 at 0.1 to 100 uM incubated for 18 to 24 hrs by luminex multiplex assay.
The target is the same in assay [10]. In words: Agonist activity at Mincle in human PBMC assessed as increase in TNF-alpha level at 0.1 to 100 uM incubated for 18 to 24 hrs by luminex multiplex assay.
The subject of assay [11] is Mus musculus. In words: Immuno-adjuvant activity in M72-immunized BALB/c mouse assessed as potentiation of antibody response to M72 by measuring serum anti-M72 IgG level at 10 nmol, im administered immediately and day 14 and measured after 14 days by ELISA. The assay is classed as functional, organism-based.
Assay [12] deals with Mus musculus. In words: Immuno-adjuvant activity in M72-immunized BALB/c mouse assessed as potentiation of antibody response to M72 by measuring serum anti-M72 IgG1 level at 10 nmol, im administered immediately and 14 and measured after 14 days by ELISA. The class given is functional, organism-based.
Assay [13] relates to Mus musculus. Kind of assay: Immuno-adjuvant activity in M72-immunized BALB/c mouse assessed as potentiation of antibody response to M72 by measuring serum anti-M72 IgG2a level at 10 nmol, im administered immediately and 14 and measured after 14 days by ELISA. The class given is functional, organism-based.
The subject of assay [14] is Mus musculus. In words: Immuno-adjuvant activity in M72-immunized BALB/c mouse assessed as potentiation of antibody response to M72 by measuring CD4+ IL-17A T-cells at 2 to 50 nmol, im administered immediately and 14 and measured after 5 days by immuno staining based flow cytometry. The class given is functional, organism-based.
The subject of assay [15] is Mus musculus. Kind of assay: Immuno-adjuvant activity in M72-immunized BALB/c mouse assessed as potentiation of antibody response to M72 by measuring IFNgamma at 2 to 50 nmol, im administered immediately and 14 and measured after 5 days by immuno staining based flow cytometry. The assay is classed as functional, organism-based. (In general: Flow cytometry measures light scatter and fluorescence of single cells or particles in a stream.)

The test system of assay [16] is Mus musculus. Kind of assay: Immuno-adjuvant activity in M72-immunized BALB/c mouse assessed as potentiation of antibody response to M72 by measuring IL-5 at 2 to 50 nmol, im administered immediately and 14 and measured after 5 days by immuno staining based flow cytometry. The assay is classed as functional, organism-based.
Assay [17] concerns Mus musculus. Kind of assay: Immuno-adjuvant activity in B42-immunized BALB/c mouse assessed as potentiation of antibody response to B42 by measuring CD4+ IL-17A T-cells at 2 to 50 nmol, im administered immediately and 14 and measured after 5 days by immuno staining based flow cytometry. The class given is functional, organism-based.

Activity calls are given as the source filed them. The calls are words filed in the database; no cut-off is given here.

Consider `CC(C)(C)c1cc(C(=O)OC[C@H]2O[C@H](O[C@H]3O[C@H](COC(=O)c4cc(C(C)(C)C)c(O)c(C(C)(C)C)c4)[C@@H](O)[C@H](O)[C@H]3O)[C@H](O)[C@@H](O)[C@@H]2O)cc(C(C)(C)C)c1O`, for which the result in assay [1] and in assay [3] was Active. For the same compound, the result in assay [2] was inactive.

In the case of `CCCCCCCCCCCCCCCCCCCCCCC(C(=O)OC[C@H]1O[C@H](O[C@H]2O[C@H](COC(=O)C(CCCCCCCCCCCCCCCCCCCCCC)C(O)CCCCCCCCCCCCCCCCCC3CC3CCCCCCCCCCCCCCC3CC3CCCCCCCCCCCCCCCCCC)[C@@H](O)[C@H](O)[C@H]2O)[C@H](O)[C@@H](O)[C@@H]1O)C(O)CCCCCCCCCCCCCCCCCC1CC1CCCCCCCCCCCCCCC1CC1CCCCCCCCCCCCCCCCCC` (some centres not stated), the outcome in [4] and in assay [5] was inactive.

On to `CC(C)(C)c1cc(C(=O)OC[C@H]2O[C@H](O[C@H]3O[C@H](COC(=O)c4cc(C(C)(C)C)cc(C(C)(C)C)c4O)[C@@H](O)[C@H](O)[C@H]3O)[C@H](O)[C@@H](O)[C@@H]2O)c(O)c(C(C)(C)C)c1`, for which the outcome (in [6]; in [7]; in [8]; in assay [9]; in assay [10]; in the assay on Mus musculus [13]) was Active. Also, in the assay with Mus musculus [14], the result was Active. In addition, the Activity entry in assay [4] and in assay [5] was “Dose-dependent effect” throughout. In addition, the result in the assay with Mus musculus [11], with Mus musculus [12], in the assay with Mus musculus [15] and in the assay on Mus musculus [16] was inactive.

For `COc1ccc(/C=C/C(=O)OC[C@H]2O[C@H](O[C@H]3O[C@H](COC(=O)/C=C/c4ccc(OC)c(OC)c4)[C@@H](O)[C@H](O)[C@H]3O)[C@H](O)[C@@H](O)[C@@H]2O)cc1OC`, the outcome in assay [6], in [7], in assay [8], in assay [9] and in assay [10] was Active.

Consider `COc1cc(C)c(C(=O)OC[C@H]2O[C@H](O[C@H]3O[C@H](COC(=O)c4c(C)cc(OC)cc4OC)[C@@H](O)[C@H](O)[C@H]3O)[C@H](O)[C@@H](O)[C@@H]2O)c(OC)c1`, for which the result in [6], in assay [7], in assay [8], in assay [9] and in [10] was Active.

In the case of `COc1cc(/C=C/C(=O)OC[C@H]2O[C@H](O[C@H]3O[C@H](COC(=O)/C=C/c4cc(OC)c(OC)c(OC)c4)[C@@H](O)[C@H](O)[C@H]3O)[C@H](O)[C@@H](O)[C@@H]2O)cc(OC)c1OC`, the result in assay [6], in [7], in [8], in [9] and in [10] was Active.

`CC(C)(C)c1cc(C(C)(C)C)c(O)c(C(=O)OC[C@H]2O[C@H](O[C@H]3O[C@H](COC(=O)c4c(O)c(C(C)(C)C)cc(C(C)(C)C)c4O)[C@@H](O)[C@H](O)[C@H]3O)[C@H](O)[C@@H](O)[C@@H]2O)c1O`: the result in assay [1] and in assay [3] was Active. Also, the result in assay [2] was inactive.

Turning to `CC(C)(C)c1cc(C(=O)OC[C@H]2O[C@H](O[C@H]3O[C@H](COC(=O)c4cc(C(C)(C)C)cc(C(C)(C)C)c4)[C@@H](O)[C@H](O)[C@H]3O)[C@H](O)[C@@H](O)[C@@H]2O)cc(C(C)(C)C)c1`, the result in assay [1] and in assay [3] was Active. The result in assay [2] was inactive.

Regarding `CCOc1cc(OCC)cc(C(=O)OC[C@H]2O[C@H](O[C@H]3O[C@H](COC(=O)c4cc(OCC)cc(OCC)c4)[C@@H](O)[C@H](O)[C@H]3O)[C@H](O)[C@@H](O)[C@@H]2O)c1`, the outcome in assay [6], in assay [7], in assay [8], in assay [9] and in assay [10] was Active.

For the compound `CCCCCCCC(CCCCCCC)C(=O)OC[C@H]1O[C@H](O[C@H]2O[C@H](COC(=O)C(CCCCCCC)CCCCCCC)[C@@H](O)[C@H](O)[C@H]2O)[C@H](O)[C@@H](O)[C@@H]1O`, the result with Mus musculus [11], with Mus musculus [12] and in the assay on Mus musculus [13] was Active.

Regarding `CC(C)(C)c1ccc(O)c(C(=O)OC[C@H]2O[C@H](O[C@H]3O[C@H](COC(=O)c4cc(C(C)(C)C)ccc4O)[C@@H](O)[C@H](O)[C@H]3O)[C@H](O)[C@@H](O)[C@@H]2O)c1`, the result in [1] and in assay [3] was Active. Further, the outcome in [2] was inactive.

For the compound `CCCCCCCCCCCCCCCCCCCCCC(=O)OC[C@H]1O[C@H](O[C@H]2O[C@H](COC(=O)CCCCCCCCCCCCCCCCCCCCC)[C@@H](O)[C@H](O)[C@H]2O)[C@H](O)[C@@H](O)[C@@H]1O`, the outcome (in assay [4]; in assay [5]; in the assay on Mus musculus [15]; in the assay with Mus musculus [16]) was inactive. In addition, the result in the assay on Mus musculus [13], in the assay on Mus musculus [14] and in the assay with Mus musculus [17] was Active.
